Tests used:
Assay in all cases: relative viability (nuclei count vs DMSO), 5 days (fraction); higher = more cells survive
[1] = tested on: LU99A
Outline: (§1)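 Relative viability equals treated-well nuclei counts divided by vehicle-well nuclei counts. Counts came from 4× images of lung cancer cell lines grown in 1536-well plates for 5 days after pin-tool dosing on the day after seeding. Dosing used one drug alone or a fixed anchor-drug dose plus five library-drug doses (not always all listed) in √10 steps, and values are medians of duplicate plates.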

[2] = tested on: NCI-H1650
Outline: as §1

[3] = tested on: NCI-H2085
Outline: as §1

[4] = tested on: NCI-H596
Outline: as §1

[5] = tested on: SK-LU-1
Outline: as §1

[6] = tested on: PC-3 [JPC-3]
Outline: as §1

[7] = tested on: NCI-H1793
Outline: as §1

[8] = tested on: NCI-H2087
Outline: as §1

[9] = tested on: NCI-H358
Outline: as §1

[10] = tested on: NCI-H1651
Outline: as §1

[11] = tested on: HCC-366
Outline: as §1

[12] = tested on: NCI-H650
Outline: as §1

[13] = tested on: NCI-H23
Outline: as §1

[14] = tested on: COR-L23
Outline: as §1

[15] = tested on: HARA
Outline: as §1

[16] = tested on: H3255
Outline: as §1

[17] = tested on: NCI-H460
Outline: as §1

[18] = tested on: 201T
Outline: as §1

[19] = tested on: HCC-78
Outline: as §1

[20] = tested on: NCI-H1755
Outline: as §1

[21] = tested on: NCI-H3122
Outline: as §1

[22] = tested on: NCI-H322M
Outline: as §1

Cc1csc(=NC2CCCCC2)n1/N=C/c1ccc(O)c(O)c1O [MIM1] + COc1cc2c(Oc3ccc(NC(=O)C4(C(=O)Nc5ccc(F)cc5)CC4)cc3F)ccnc2cc1OCCCN1CCOCC1 [Foretinib] (partner 0.25 µM)
relative viability ([1]; first compound 0.2 µM): 0.808
relative viability ([1]; first compound 0.6325 µM): 0.775
relative viability ([1]; first compound 2 µM): 0.751
relative viability ([1]; first compound 6.325 µM): 0.743
relative viability ([1]; first compound 20 µM): 0.407
relative viability ([2]; first compound 0.2 µM): 1.16
relative viability ([2]; first compound 0.6325 µM): 1.12
relative viability ([2]; first compound 2 µM): 0.832
relative viability ([2]; first compound 6.325 µM): 0.265
relative viability ([2]; first compound 20 µM): 0.142
relative viability ([3]; first compound 0.2 µM): 0.895
relative viability ([3]; first compound 0.6325 µM): 1.11
relative viability ([3]; first compound 2 µM): 1.13
relative viability ([3]; first compound 6.325 µM): 0.935
relative viability ([3]; first compound 20 µM): 0.843
relative viability ([4]; first compound 0.2 µM): 0.886
relative viability ([4]; first compound 0.6325 µM): 0.741
relative viability ([4]; first compound 2 µM): 0.858
relative viability ([4]; first compound 6.325 µM): 0.848
relative viability ([4]; first compound 20 µM): 0.636
relative viability ([5]; first compound 0.2 µM): 0.849
relative viability ([5]; first compound 0.6325 µM): 0.821
relative viability ([5]; first compound 2 µM): 0.849
relative viability ([5]; first compound 6.325 µM): 0.75
relative viability ([5]; first compound 20 µM): 0.788
relative viability ([6]; first compound 0.2 µM): 1.01
relative viability ([6]; first compound 0.6325 µM): 1.05
relative viability ([6]; first compound 2 µM): 1.01
relative viability ([6]; first compound 6.325 µM): 0.763
relative viability ([6]; first compound 20 µM): 0.531
relative viability ([7]; first compound 0.2 µM): 0.793
relative viability ([7]; first compound 2 µM): 0.735
relative viability ([7]; first compound 6.325 µM): 0.686
relative viability ([7]; first compound 20 µM): 1.01
relative viability ([8]; first compound 0.2 µM): 1.04
relative viability ([8]; first compound 0.6325 µM): 1.31
relative viability ([8]; first compound 2 µM): 1.18
relative viability ([8]; first compound 6.325 µM): 0.813
relative viability ([8]; first compound 20 µM): 0.847
relative viability ([9]; first compound 0.2 µM): 0.646
relative viability ([9]; first compound 0.6325 µM): 0.758
relative viability ([9]; first compound 2 µM): 0.623
relative viability ([9]; first compound 6.325 µM): 0.348
relative viability ([9]; first compound 20 µM): 0.149
relative viability ([10]; first compound 0.2 µM): 0.722
relative viability ([10]; first compound 0.6325 µM): 0.741
relative viability ([10]; first compound 2 µM): 0.824
relative viability ([10]; first compound 6.325 µM): 0.648
relative viability ([10]; first compound 20 µM): 0.652
relative viability ([11]; first compound 0.2 µM): 0.927
relative viability ([11]; first compound 2 µM): 0.993
relative viability ([11]; first compound 6.325 µM): 0.782
relative viability ([11]; first compound 20 µM): 0.077
relative viability ([12]; first compound 0.2 µM): 1.05
relative viability ([12]; first compound 0.6325 µM): 1.05
relative viability ([12]; first compound 2 µM): 1.02
relative viability ([12]; first compound 6.325 µM): 0.924
relative viability ([12]; first compound 20 µM): 0.412
relative viability ([13]; first compound 0.2 µM): 1.07
relative viability ([13]; first compound 2 µM): 0.791
relative viability ([13]; first compound 6.325 µM): 0.812
relative viability ([13]; first compound 20 µM): 0.263
relative viability ([14]; first compound 0.2 µM): 0.992
relative viability ([14]; first compound 0.6325 µM): 0.935
relative viability ([14]; first compound 2 µM): 0.839
relative viability ([14]; first compound 6.325 µM): 0.802
relative viability ([14]; first compound 20 µM): 0.547
relative viability ([15]; first compound 0.2 µM): 0.954
relative viability ([15]; first compound 2 µM): 0.991
relative viability ([15]; first compound 6.325 µM): 0.868
relative viability ([15]; first compound 20 µM): 0.131
relative viability ([16]; first compound 0.2 µM): 0.945
relative viability ([16]; first compound 0.6325 µM): 0.715
relative viability ([16]; first compound 2 µM): 0.743
relative viability ([16]; first compound 6.325 µM): 0.724
relative viability ([16]; first compound 20 µM): 0.307
relative viability ([17]; first compound 0.2 µM): 0.954
relative viability ([17]; first compound 0.6325 µM): 0.987
relative viability ([17]; first compound 2 µM): 0.862
relative viability ([17]; first compound 6.325 µM): 0.493
relative viability ([17]; first compound 20 µM): 0.0555
relative viability ([18]; first compound 0.2 µM): 1.11
relative viability ([18]; first compound 2 µM): 0.993
relative viability ([18]; first compound 6.325 µM): 0.709
relative viability ([18]; first compound 20 µM): 0.483
relative viability ([19]; first compound 0.2 µM): 0.558
relative viability ([19]; first compound 0.6325 µM): 0.563
relative viability ([19]; first compound 2 µM): 0.539
relative viability ([19]; first compound 6.325 µM): 0.553
relative viability ([19]; first compound 20 µM): 0.911
relative viability ([20]; first compound 0.2 µM): 0.882
relative viability ([20]; first compound 0.6325 µM): 0.927
relative viability ([20]; first compound 2 µM): 0.902
relative viability ([20]; first compound 6.325 µM): 0.72
relative viability ([20]; first compound 20 µM): 0.563
relative viability ([21]; first compound 0.2 µM): 0.891
relative viability ([21]; first compound 0.6325 µM): 1.03
relative viability ([21]; first compound 2 µM): 1.03
relative viability ([21]; first compound 6.325 µM): 0.683
relative viability ([21]; first compound 20 µM): 0.64
relative viability ([22]; first compound 0.2 µM): 0.986
relative viability ([22]; first compound 0.6325 µM): 0.895
relative viability ([22]; first compound 2 µM): 0.867
relative viability ([22]; first compound 6.325 µM): 0.85
relative viability ([22]; first compound 20 µM): 0.548

From the supplement of paper PMC10307832
